Assay results taken from ChEMBL document CHEMBL3286103.
Activity calls are given as the source filed them. The rule behind the calls is not given here.

Target: T1, Vitamin D3 receptor A (Danio rerio) (UniProt Q9PTN2)
T1 sequence (whole entry): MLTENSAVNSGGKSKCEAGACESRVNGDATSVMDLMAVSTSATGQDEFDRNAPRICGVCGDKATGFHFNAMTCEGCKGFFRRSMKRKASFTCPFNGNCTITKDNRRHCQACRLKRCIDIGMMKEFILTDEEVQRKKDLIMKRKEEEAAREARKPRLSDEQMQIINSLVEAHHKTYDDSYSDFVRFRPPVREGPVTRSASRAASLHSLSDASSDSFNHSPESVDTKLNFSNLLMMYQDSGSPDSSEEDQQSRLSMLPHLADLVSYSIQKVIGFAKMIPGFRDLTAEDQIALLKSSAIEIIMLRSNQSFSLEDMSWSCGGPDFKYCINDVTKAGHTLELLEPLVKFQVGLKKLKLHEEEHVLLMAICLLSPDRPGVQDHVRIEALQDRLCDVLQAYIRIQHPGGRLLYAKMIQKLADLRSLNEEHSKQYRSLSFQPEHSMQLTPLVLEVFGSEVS
Assay: Binding affinity to N-terminal His-tagged zebrafish VDR LBD (154 to 456) at 10 to 20-fold molar excess by ESI-MS analysis

## C[C@H](CCC(=O)O)[C@H]1CC[C@H]2[C@@H]3CC[C@@H]4C[C@H](O)CC[C@]4(C)[C@H]3CC[C@]12C
  Activity: Active
